In brackets after ≈: the same amount, converted by molar mass. Like-named read-outs stand apart in the source and are kept apart here.
Experiments:
[1] = Mouse microsome stability assay; assay type: in vitro ADME; details: compound 0.5 μM
Description: At 0, 5, 15, 30 and 45 minute intervals, an aliquot was taken and quenched with acetonitrile (ACN) containing internal standard. No-cofactor controls at 45 minutes were prepared. Following completion of the experimentation, the samples were analyzed by LC-MS/MS. […] C=initial×exp (−k×t). Intrinsic clearance (CLint) was calculated as liver clearance from the half-life using the following equation: CLint=k×(ml incubation/0.5 mg protein)×(52.5 mg protein/g liver). Results were reported as peak area ratios of analyte to internal standard. The intrinsic clearance (CLint) was determined from the first order elimination constant by non-linear regression. The microsome stability assay, plasma stability assay, and plasma protein binding assay were each performed by Alliance Pharma, Inc. (Malvern, Pa.).

[2] = target: T1, recombinant catalytic a domain of human PDI A1 (PDIa) (Homo sapiens, UniProt P07237); experiment: Insulin aggregation assay (PDIa reductase activity); assay type: biochemical; details: compound 750 μM
T1 construct: made in house; host or cells: Escherichia coli BL21-Gold (DE3)

[3] = target: T1, recombinant catalytic a domain of human PDI A1 (PDIa); experiment: as above; assay type: biochemical; details: for Insulin Assay (either active or inactive): Table 5
Source text: In this insulin aggregation assay (Xu et al., 2012; Jasuja et al., 2012; Khan et al., 2011; Smith et al., 2004), PDIa reduced the two disulfide bonds between the α- and β-chains of insulin, causing the β-chain to aggregate and precipitate, resulting in an increase in absorbance at 650 nm.
To investigate the mode of binding further and to determine whether the binding was reversible or irreversible, the recovery of enzymatic activity of PDIa after dilution of pre-formed concentrated PDIa-LOC14 complexes was analyzed. LOC14 (750 μM) was incubated with a concentrated solution of PDIa (500 μM). The mixture was then diluted 100-fold and PDI's enzymatic activity was measured in the insulin reduction assay. As a control, the same procedure was also performed on the sample containing an irreversible inhibitor, 16F16 (16F16 at 750 μM and PDIa at 500 μM). […] This illustrated that unlike 16F16, LOC14 binding to PDIa is reversible.

[4] = tested on: PC12 mHTT^Q103 cells; details: Hoffstrom et al., 2010; read-out: EC50, rescue of PC12 mHTT^Q103 cells (previously identified inhibitor); cited from earlier work
[5] = Solubility; details: for solubility: Table 4
[6] = target: T2, human catalytic PDI A1 a domain (PDIa) (Homo sapiens, UniProt P07237); experiment: Isothermal titration calorimetry (ITC) binding to PDIa; details: PDIa
T2 construct: made in house; host or cells: Escherichia coli BL21-Gold (DE3)

[7] = Mouse plasma stability assay; assay type: in vitro ADME; details: compound 1.0 μM
Description: Test compound (1 μM) was incubated at 37° C. for up to 120 minutes in mouse plasma. At 0, 15, 30, 60, and 120 minute intervals an 100 μL aliquot was taken and quenched with 200 μL acetonitrile (ACN) containing internal standard. Following completion of the experimentation, the samples were analyzed by LC-MS/MS. The half-life (t1/2) was calculated using the following equation: t1/2=0.693/k, where, k is the elimination rate constant of test compounds obtained by fitting the data to the equation: C=initial×exp (−k×t). Results were reported as peak area ratios of analyte to internal standard.
The microsome stability assay, plasma stability assay, and plasma protein binding assay were each performed by Alliance Pharma, Inc. (Malvern, Pa.).

[8] = tested on: PC12 mHTT^Q103 cells; experiment: Rescue of PC12 cells from mHTT^Q103 induced cell death (Alamar blue viability); assay type: cell-based; details: Rattus norvegicus
Source text: PC12 mHTT^Q103 cells were a gift from Erik S. Schweitzer (UCLA School of Medicine, Los Angeles, Calif.). These cells are stably transfected with the first exon of human HTT gene containing the pathogenic 103 CAG/CAA repeat expansion, under the control of the ecdysteroid promoter (Aiken et al., 2004). The plasmid also contains a Bombyx mori ecdysone receptor gene fused at N-terminal with VP16 transactivation domain (Suhr et al., 1998; Vilaboa et al., 2011). Addition of the ecdysone analog, tebufenozide, to the cell culture medium is used to initiate the transcription of mutant HTT (Aiken et al., 2004).
PC12 mHTT^Q103 cells were cultured in DMEM containing 4.5 g/I glucose, 25 mM HEPES, sodium pyruvate, and no L-glutamine (Mediatech, cat. no. 15-018-CV), supplemented with 10% (v/v) Cosmic Calf serum, 2 mM L-glutamine, 100 units/mL of penicillin-streptomycin, and 0.5 mg/ml active geneticin. Cells were grown at 37° C., 9.5% CO2, and the medium was replaced with fresh medium every 2-3 days. To induce mHTT^Q103 expression for experiments, tebufenozide, a gift from Lynne Moore and Fred H. Gage (The Salk Institute for Biological Studies, La Jolla, Calif.), was added to the medium at 200 nM final concentration from 1 mM stock in 85% ethanol.
LOC mother plates with compounds at 4 mg/ml were thawed and spun down (1000 rpm, 20° C., 1 min) prior to use. Biomek FX (Beckman Coulter) robotic liquid dispenser was used to handle all liquid transferring and mixing. […] Two fold serial dilution was performed across five daughter plates by transferring 50 μl of compounds (at […]) from the D1 plate into 50 μl of PC12 medium in daughter plate D2, mixing, and then repeating the process for the remaining three plates. Daughter plate D1 with compounds at […], daughter plate D3 with compounds at 20 μl/ml and daughter plate D5 with compounds at 5 μl/ml were then used for the screen. Assay plates were set up by seeding tebufenozide-induced PC12 mHTT^Q103 cells into 384-well black, clear-bottom plates (Corning Inc. cat. no. 3712) at a density of 7,500 cells per well in 57 μl PC12 medium without geneticin. Three microliters of compound from the daughter plates (D1, D3, and D5) were added to the assay plates for a final compound concentration of 4 μl/ml, 1 μl/ml, and 0.25 μl/ml. Four wells containing uninduced PC12 mHTT^Q103 cells and four wells containing medium only, were also included on each plate as controls. The assay plates were incubated at 37° C., 9.5% CO2 for 48 hours. Twenty microliters of 40% Alamar blue (Life Technologies cat. no. DAL1100) solution in PC12 medium was added to each well (1:10 final dilution) and the plates were incubated for an additional 12-24 hours at 37° C., 9.5% CO2. Alamar blue fluorescence was read on a fluorescence plate reader (PerkinElmer Victor3) with 530 nm excitation filter and 590 nm emission filter. Each compound concentration was tested in triplicate.
The follow-up testing of primary screen hits was performed in a similar way. Fresh powder stocks of primary hits were re-ordered from vendors, dissolved in DMSO and tested in a two-fold serial dilution across 10 wells in both tebufenozide-induced and uninduced PC12 mHTT^Q103 cells. Dose-response curves were plotted as mean±SD and fit to either four-parameter sigmoidal (for uninduced cells) or bell-shaped (induced) function using Prism (GraphPad Software).
A cascade of two assays was used, involving both a phenotypic high-throughput screening (HTS) assay and an in vitro PDI reductase assay, to identify neuroprotective PDI-inhibiting compounds. […] Alamar blue was used as a fluorescent readout for viability after 48 hours of compound treatment and mHTT^Q103 induction. […] All the candidate hit compounds were re-tested in a two-fold dilution series.

[9] = target: T2, human catalytic PDI A1 a domain (PDIa); experiment: Isothermal titration calorimetry (ITC) binding to PDIa; details: PDIa; remark: listed apart in the source
Description: All ITC experiments were carried out at 25° C. on MicoCal Auto-ITC200 system (GE Healthcare). Reduced PDIa was dialyzed into ITC buffer (20 mM sodium phosphate buffer pH 7.8) and loaded into a sample cell at 40 μM concentration. The compound solution was loaded into a syringe at 400 μM in the same ITC buffer with a final DMSO concentration at 0.4% (v/v). ITC titration experiments were carried out at 25° C. with 19 injections, 2 μl per injection, and 180 seconds between each injection. The reference cell power was set to 5 μcal/sec. A control experiment was performed for each compound, where each compound was titrated into buffer to account for heat released due to dilution. This background was subtracted from test data before a final dissociation constant was obtained. Data were analyzed using a one-site binding model in Origin 7.1 software. […] Gibbs free energy, ΔG, was calculated from equation ΔG=ΔH−TΔS. All other parameters, Ka, n, ΔH, ΔS, were determined directly from the titration data.
For ITC experiments with 16F16 pre-treatment, 40 μM PDIa (after dialysis into ITC buffer) was treated with 200 μM 16F16 for 12-15 hours at 4° C. Next day the whole solution was loaded into the sample cell. LOC14 at 400 μM in ITC buffer was loaded into syringe and titrated into PDIa+16F16 loaded cell. For control experiments, ITC buffer with 200 μM 16F16 was used in the cell, while 400 μM LOC14 in ITC buffer was used in the syringe.
The binding mode of LOC14 to PDIa was next investigated using isothermal titration calorimetry (ITC). ITC measures the heat released or absorbed during a biomolecular interaction. It is a direct analytical method for determining the binding and thermodynamic parameters, such as reaction stoichiometry (n), binding constants (Ka and Kd), enthalpy (ΔH), entropy (ΔS), and free energy (ΔG) of an interaction.

[10] = physchem; details: DMSO, organic solvent or mixture
[11] = first site, Table 4, read-out: ITC KD1 (two binding site)
[12] = first site, Table 5, read-out: ITC Assay KD1 (2 binding sites)
[13] = PC-12, Table 5, read-out: Cell Viability Assay EC50

T1 sequence (P07237 with tags, fused parts or gaps): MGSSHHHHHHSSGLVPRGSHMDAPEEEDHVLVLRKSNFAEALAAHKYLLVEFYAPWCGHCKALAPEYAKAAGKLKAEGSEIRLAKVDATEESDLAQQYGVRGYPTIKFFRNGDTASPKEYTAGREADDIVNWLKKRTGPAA
T2 sequence (P07237 with tags, fused parts or gaps): as above

CCOc1ccc2ccc(=O)oc2c1 [7-Ethoxycoumarin, reference compound]
Elimination rate constant (k) ([1]; mouse liver microsomes): 0.2341 | Intrinsic Clearance (CLint), mL/min/g liver ([1]; mouse liver microsomes): 24.58 mL/min/g liver | half-life at 0.5 μM ([1]; mouse, liver microsomes, pH 7.4, mouse liver microsomes, read-out: Half-life (t1/2)): 3 min

COC(=O)C1(C)c2[nH]c3ccccc3c2CCN1C(=O)CCl (centres unmarked) [16F16, reference compound]
inhibition of PDI's reduction of insulin without dilution [2]: able to inhibit | PDI's enzymatic activity after dilution of pre-formed complex ([3]; compound 750 μM + PDIa 500 μM, diluted 100-fold): still inhibited | EC50 [4]: 1000 nM

O=c1c2ccccc2[se]n1-c1ccccc1 [Ebselen, reference compound]
solubility [5]: Poor | Kd [6, 11]: 5.2 nM | Kd ([6]; second site, Table 4, read-out: ITC KD2 (two binding site)): 111 nM

CCOC(=O)[C@H](CCc1ccccc1)N[C@@H](C)C(=O)N1CCC[C@H]1C(=O)O [Enalapril, reference compound]
% Remaining after 2-hour incubation [7]: 4.3% | Elimination rate constant (k) [7]: 0.0201 | half-life at 1 μM ([7]; read-out: Half-life (t1/2) (converted)): 36 min

O=c1c2ccccc2sn1Cc1ccccc1 [LC-5, 2-benzylbenzo[d]isothiazol-3(2H)-one]
Solubility in DMSO ([5]; Table 5): 100 mM in DMSO | Insulin Assay (either active or inactive) [3]: Active | Kd [6, 11]: 42.7 nM | Kd [6, 12]: 42.7 nM | Kd ([6]; read-out: ITC Assay KD2 (2 binding sites), second site, Table 5): 2270 nM

CC(C)(C)OC(=O)NC1CCN(Cn2sc3ccccc3c2=O)CC1 [LC-8]
Solubility in DMSO ([5]; Table 5): 50 mM in DMSO | Insulin Assay (either active or inactive) [3]: Active | EC50 [8, 13]: 384 nM | Kd ([9]; Table 4, read-out: ITC KD): 94.3 nM | Kd ([9]; Table 5, read-out: ITC Assay KD): 94.3 nM | solubility [10]: 50 mM (≈ 18.2 mg/mL)

O=c1c2ccccc2sn1CN1CCN(Cn2sc3ccccc3c2=O)CC1 [LC-9, 2,2′-(piperazine-1,4-diylbis(methylene))bis(benzo[d]isothiazol-3(2H)-one)]
solubility [5]: poor solubility | Solubility (words, printed in ITC Assay column) ([5]; Table 5): poor solubility | Insulin Assay (either active or inactive) [3]: Active | EC50 [8, 13]: 173 nM | solubility [10]: < 6.75 mM

O=c1c2ccccc2sn1-c1ccccc1 [LC-24]
Insulin Assay (either active or inactive) [3]: not active | EC50 ([8]; PC-12, read-out: Cell Viability Assay EC50): 1130 nM | Kd [6, 12]: 8.1 nM | solubility [10]: 50 mM (≈ 11.4 mg/mL)
